This is an account of results in patent publication US7208517B1, “Endothelin antagonists” (Abbott Labortories, priority 1994, dated 2007).

Converted amounts (≈) assume the structure as drawn.

The IC50 is the concentration that gives 50% inhibition. What is called inhibition is the share of the control response that was lost under treatment. A word on the solubility: it is the concentration that dissolves in the medium under given conditions. Low values mean a poorly soluble substance, high ones a readily soluble substance.

One data set has as its target T1, ETB receptors of porcine cerebellar tissues (pET-B) (Sus scrofa, UniProt P35463).
T1 construct: porcine cerebellar tissues (known to contain ETB receptors); from tissue; host or cells: porcine cerebellum (membranes)
T1 sequence (P35463 27-443): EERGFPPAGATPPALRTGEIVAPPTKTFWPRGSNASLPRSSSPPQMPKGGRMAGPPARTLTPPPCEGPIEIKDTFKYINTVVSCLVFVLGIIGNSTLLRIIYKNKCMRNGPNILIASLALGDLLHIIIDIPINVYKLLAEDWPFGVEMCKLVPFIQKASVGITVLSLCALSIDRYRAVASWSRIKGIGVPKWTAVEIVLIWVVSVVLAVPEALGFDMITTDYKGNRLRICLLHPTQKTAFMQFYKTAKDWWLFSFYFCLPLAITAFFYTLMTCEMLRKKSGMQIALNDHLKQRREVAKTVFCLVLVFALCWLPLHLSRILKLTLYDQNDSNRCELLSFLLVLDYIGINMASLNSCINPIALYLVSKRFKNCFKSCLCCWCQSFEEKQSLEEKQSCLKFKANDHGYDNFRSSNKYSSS
The data set can be described thus: ETA/ETB selectivity: (125I)ET-3 competition binding, ETB assay in porcine cerebellum membranes (pET-B). Conditions: porcine cerebellum membranes; 0.1 nM (125I)ET-3; read-out: pET-B IC50.
As to `CCCCN(CCCC)C(=O)CN1CC(c2ccc3c(c2)OCO3)C(C(=O)O)C1CC(C)(C)CCC` (stereo not shown) [compound 503], the IC50 came to 50 µM.

As for `CCCCN(CCCC)C(=O)CN1CC(c2ccc3c(c2)OCO3)C(C(=O)O)C1CCC1OCCO1` (stereo not shown) [compound 504], the IC50 is more than 100 µM.

For the compound `CCCCN(CCCC)C(=O)CN1CC(c2ccc3c(c2)OCO3)C(C(=O)O)C1CCC1CCCCO1` (stereo not shown) [compound 505], the IC50 stood at 60 µM.

Turning to `CCCCN(CCCC)C(=O)CN1CC(c2ccc3c(c2)OCO3)C(C(=O)O)C1CC(C)(C)C=C(C)C` (stereo not shown) [compound 506], the IC50 is more than 100 µM.

As for `CCCCN(CCCC)C(=O)CN1CC(c2ccc3c(c2)OCO3)C(C(=O)O)C1CC(C)(C)C1OCCO1` (stereo not shown) [compound 507], the IC50 was more than 100 µM.

For the compound `CCCCN(CCCC)C(=O)CN1CC(c2cc(OC)c3c(c2)OCO3)C(C(=O)O)C1CCC1OCCO1` (stereo not shown) [compound 509], the IC50 amounted to 30 µM.

In the case of `CCCCN(CCCC)C(=O)CN1CC(c2ccc3c(c2)OCO3)C(C(=O)O)C1COc1ccccc1OC` (stereo not shown) [compound 510], the IC50 was determined as 35 µM.

Consider `CCCC(CCC)N(C(=O)CN1CC(c2cc(OC)c3c(c2)OCO3)C(C(=O)O)C1CCC1OCCO1)c1ccc(F)c(C)c1` (stereo not shown) [compound 513], for which the IC50 was 8.8 µM.

Regarding `CCCCN(CCCC)C(=O)CN1C[C@H](c2ccc3c(c2)CCO3)[C@@H](C(=O)O)[C@@H]1CC(C)(C)CCC` [compound 515], the IC50 was more than 62 µM.

In the case of `CCCCN(CCCC)C(=O)CN1CC(c2cc(OC)c3c(c2)OCO3)C(C(=O)O)C1CC(C)(C)C1OCCO1` (stereo not shown) [compound 516], the IC50 was found to be 29 µM.

As to `CCCCN(CCCC)C(=O)CN1CC(c2ccc3c(c2)OCO3)C(C(=O)O)C1CCc1ccccc1OC` (stereo not shown) [compound 517], the IC50 amounted to 30 µM.

Take `CCCCN(CCCO)C(=O)CN1CC(c2ccc3c(c2)OCO3)C(C(=O)O)C1c1ccc(OC)cc1` (stereo not shown) [compound 523]: the IC50 turned out to be 0.36 µM.

Take `CCCON(CCC)C(=O)CN1CC(c2ccc3c(c2)OCO3)C(C(=O)O)C1c1ccc(OC)cc1` (stereo not shown) [compound 524]: the IC50 amounted to 1.7 µM.

Turning to `CCCCN(CCCC)C(=O)CN1C[C@H](c2ccc3c(c2)OCO3)[C@@H](C(=O)O)[C@@H]1CC(C)(C)CCC` [compound 537], the IC50 came out at 5.9 µM.

Another data set has as its system male subjects with hormone refractory prostate cancer. The data set can be described thus: Bone alkaline phosphatase (BAP) levels of treated subjects. It is filed as in vivo, human. As to conditions: subjects treated versus placebo. The protocol:
Studies were performed on male subjects with asymptomatic hormone refractory prostate cancer with rising PSA levels and on male subjects with symptomatic hormone refractory prostate cancer with rising PSA levels and pain. Subjects in the phase II studies had castrate levels of testosterone, either due to pharmacologic intervention, via leuprolide (Lupron®) or goserelin (Zoladex®), or via surgical castration. Subjects received ABT-627 or placebo. The following tests were conducted:
ABT-627 was formulated in 2.5 and 10 mg doses. An oral liquid formulation of ABT-627 was also prepared as follows: 1 mg/ml ABT-627, 50% glycerin, 14% alcohol, and water. Matching placebos were also provided.
Markers of osteoblastic activity were assessed using […]. Bone markers include bone alkaline phosphatase (BAP), deoxypridinoline, and N-telopeptide of Type I collagen. Blood samples were collected prior to dosing on Day 1, Day 42, Day 84, Day 168, and every 28 days after Day 168, with a final collection on the last day of the study.
Bone Alkaline Phosphatase levels were determined using the bone-specific Alkphase-B® assay published by Metra Biosystems (Mountain View, Calif.).
`CCCCCN(CCCC)C(=O)CN1C[C@H](c2ccc3c(c2)OCO3)[C@@H](C(=O)O)[C@@H]1c1ccc(OC)cc1` [ABT-627]: the “BAP levels (AUC, FIG. 5)” value is on record as “BAP levels decreased”.

For the next data set, the target named is T2, ETA Receptor (Rattus norvegicus, UniProt P26684).
T2 construct: endogenous in cells; host or cells: MMQ rat pituitary cells (membranes)
T2 sequence (P26684 21-426): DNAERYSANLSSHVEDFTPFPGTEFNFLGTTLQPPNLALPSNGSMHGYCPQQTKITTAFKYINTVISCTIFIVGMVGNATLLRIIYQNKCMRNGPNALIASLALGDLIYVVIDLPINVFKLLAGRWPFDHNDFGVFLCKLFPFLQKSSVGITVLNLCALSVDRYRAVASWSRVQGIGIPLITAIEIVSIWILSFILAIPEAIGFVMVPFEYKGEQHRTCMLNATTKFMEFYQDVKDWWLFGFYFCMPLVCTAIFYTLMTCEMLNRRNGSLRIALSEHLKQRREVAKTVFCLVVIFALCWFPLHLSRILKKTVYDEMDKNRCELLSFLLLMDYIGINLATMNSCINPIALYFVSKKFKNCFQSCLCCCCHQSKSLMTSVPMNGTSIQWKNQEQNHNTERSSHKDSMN
The data set can be described thus: [125I]ET-1 binding to membranes from MMQ cells (ETA receptor binding assay, Table 4). Conditions: test compound at 1 μM; 0.1 nM [125I]ET-1, MMQ cell membranes, 4 hours at 25° C.; read-out: % Inhibition of ETA at 1 μM.
Regarding `CCCCN(CCCC)C(=O)CN1CC(c2ccc3c(c2)OCO3)C(C(=O)O)C1CC(C)(C)CCC` (stereo not shown) [compound 503], the inhibition at 1 µM was found to be 97%.

As for `CCCCN(CCCC)C(=O)CN1CC(c2ccc3c(c2)OCO3)C(C(=O)O)C1CCC1OCCO1` (stereo not shown) [compound 504], the inhibition at 1 µM was found to be 97.1%.

For `CCCCN(CCCC)C(=O)CN1CC(c2ccc3c(c2)OCO3)C(C(=O)O)C1CCC1CCCCO1` (stereo not shown) [compound 505], the inhibition at 1 µM stood at 95.8%.

For the compound `CCCCN(CCCC)C(=O)CN1CC(c2ccc3c(c2)OCO3)C(C(=O)O)C1CC(C)(C)C=C(C)C` (stereo not shown) [compound 506], the inhibition at 1 µM came out at 99.7%.

As for `CCCCN(CCCC)C(=O)CN1CC(c2ccc3c(c2)OCO3)C(C(=O)O)C1CC(C)(C)C1OCCO1` (stereo not shown) [compound 507], the inhibition at 1 µM turned out to be 99.3%.

As to `CCCCN(CCCC)C(=O)CN1CC(c2cc(OC)c3c(c2)OCO3)C(C(=O)O)C1CCC1OCCO1` (stereo not shown) [compound 509], the inhibition at 1 µM was 100%.

On to `CCCCN(CCCC)C(=O)CN1CC(c2ccc3c(c2)OCO3)C(C(=O)O)C1COc1ccccc1OC` (stereo not shown) [compound 510], for which the inhibition at 1 µM was 100%.

Regarding `CCCC(CCC)N(C(=O)CN1CC(c2cc(OC)c3c(c2)OCO3)C(C(=O)O)C1CCC1OCCO1)c1ccc(F)c(C)c1` (stereo not shown) [compound 513], the inhibition at 1 µM was 98%.

Consider `CCCCN(CCCC)C(=O)CN1C[C@H](c2ccc3c(c2)CCO3)[C@@H](C(=O)O)[C@@H]1CC(C)(C)CCC` [compound 515], for which the inhibition at 1 µM was 99.1%.

Turning to `CCCCN(CCCC)C(=O)CN1CC(c2cc(OC)c3c(c2)OCO3)C(C(=O)O)C1CC(C)(C)C1OCCO1` (stereo not shown) [compound 516], the inhibition at 1 µM stood at 99.7%.

Consider `CCCCN(CCCC)C(=O)CN1CC(c2ccc3c(c2)OCO3)C(C(=O)O)C1CCc1ccccc1OC` (stereo not shown) [compound 517], for which the inhibition at 1 µM amounted to 94.1%.

Consider `CCCCN(CCCO)C(=O)CN1CC(c2ccc3c(c2)OCO3)C(C(=O)O)C1c1ccc(OC)cc1` (stereo not shown) [compound 523], for which the inhibition at 1 µM came out at 99%.

As for `CCCON(CCC)C(=O)CN1CC(c2ccc3c(c2)OCO3)C(C(=O)O)C1c1ccc(OC)cc1` (stereo not shown) [compound 524], the inhibition at 1 µM came out at 99.2%.

For the compound `CCCCN(C(=O)CN1CC(c2ccc3c(c2)OCO3)C(C(=O)O)C1c1ccc(OC)cc1)c1cccnc1` (stereo not shown) [compound 531], the inhibition at 1 µM came to 99.8%.

With `CCCCN(CCCC)C(=O)CN1C[C@H](c2ccc3c(c2)OCO3)[C@@H](C(=O)O)[C@@H]1CC(C)(C)CCC` [compound 537], the inhibition at 1 µM came out at 97.2%.

System in a further data set: not listed separately
The data set can be described thus: pH-solubility profile: maximum solubility in aqueous media at varying pH. It is filed as physicochemical. As to conditions: aqueous buffer, pH 5.1, about 25° C. The source says:
Such increased aqueous solubility, coupled with the enhanced potency resulting from decreased protein binding, might make such compounds preferred for development as parenteral agents.
`CCCCN(C(=O)CN1CC(c2ccc3c(c2)OCO3)C(C(=O)O)C1c1ccc(OC)cc1)c1cccnc1` (stereo not shown) [compound 531]: the solubility is more than 3300 µg/mL.

The same data set, now with this note: aqueous buffer, pH 6.5, about 25° C.
As for `CCCCN(C(=O)CN1CC(c2ccc3c(c2)OCO3)C(C(=O)O)C1c1ccc(OC)cc1)c1cccnc1` (stereo not shown) [compound 531], the solubility was more than 3400 µg/mL.

Staying with this data set, now noted: aqueous buffer, pH 7.1, about 25° C.
`CCCCN(C(=O)CN1CC(c2ccc3c(c2)OCO3)C(C(=O)O)C1c1ccc(OC)cc1)c1cccnc1` (stereo not shown) [compound 531] had a solubility of 3540 µg/mL (≈ 6.66 mM).

Staying with this data set, now noted: aqueous buffer, pH 7.6, about 25° C.
Take `CCCCN(C(=O)CN1CC(c2ccc3c(c2)OCO3)C(C(=O)O)C1c1ccc(OC)cc1)c1cccnc1` (stereo not shown) [compound 531]: the concentration in solution (solubility) was 3550 µg/mL (≈ 6.68 mM).
